Here are results for 27 molecules from publication PMC10511702, “Design, molecular modelling and synthesis of novel benzothiazole derivatives as BCL-2 inhibitors” (Scientific Reports, 2023).

One data set deals with T1, recombinant BCL-2 (Homo sapiens, UniProt P10415).
T1 construct: purchased BPS Bioscience 50272
The data set can be described thus: In vitro BCL-2 inhibitory activity, TR-FRET assay (BPS Bioscience). It is filed as binding. As to conditions: for inhibition at 10 µM / BCL-2 inhibition %: single dose of 10 µM; for IC50: 5 concentrations 1 nM-10 µM. As for the experimental part:
The in vitro enzyme inhibition determination for the synthesized compounds was carried out in BPS Bioscience Corporation, San Diego, CA, USA (www.bpsbioscience.com). […] The assay was performed by TR-FRET technology using a recombinant BCL-2 and a peptide- ligand substrate. The TR-FRET signal from the assay is correlated with the amount of Ligand binding to BCL-2. […] All of the binding reactions were conducted at room temperature. […] The reaction mixture incubated for 180 min prior to reading the TR-FRET signal. For the background, ligand was replaced with assay buffer. Fluorescence signals for both the donor and acceptor dyes were measured using a Tecan Infinite M1000 plate reader. TR-FRET was recorded as the ratio of the fluorescence of the acceptor and the donor dyes (acceptor/donor). Binding experiments were performed in duplicate at each concentration. The TR-FRET data were analyzed using the computer software, Graphpad Prism. In the absence of the compound in wells containing BCL-2 ligand, the TR-FRET signal (Ft) in each data set was defined as 100% activity. In wells without peptide ligand, the TR-FRET signal (Fb) in each data set was defined as 0% activity. The percent activity in the presence of each compound was calculated according to the following equation: % activity = [(F − Fb)/ (Ft − Fb)] × 100, where F = the TR-FRET signal in the presence of the compound. The percent inhibition was calculated according to the following equation: % inhibition = 100—% activity. IC50 determination for target compounds against BCL-2 was calculated. […] The IC50 value was determined by the concentration causing a half-maximal percent activity.
(In general: Time-resolved FRET reads energy transfer from a long-lived donor to a nearby acceptor.)

T1 sequence (P10415 whole entry): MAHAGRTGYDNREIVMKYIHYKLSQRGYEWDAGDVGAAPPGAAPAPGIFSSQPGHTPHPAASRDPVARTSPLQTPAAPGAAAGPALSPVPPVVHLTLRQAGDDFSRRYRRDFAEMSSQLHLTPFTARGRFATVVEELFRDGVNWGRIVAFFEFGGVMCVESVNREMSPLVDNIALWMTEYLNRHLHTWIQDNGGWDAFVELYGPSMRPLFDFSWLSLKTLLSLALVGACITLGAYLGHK

For the molecule `O=C(c1ccc2nc(NS(=O)(=O)c3ccc4ccccc4c3)sc2c1)N1CCN(C(=O)C2CCCO2)CC1` (stereo not shown) [7i, N-(6-(4-(Tetrahydrofuran-2-carbonyl)piperazine-1-carbonyl)benzo[d]thiazol-2-yl)naphthalene-2-sulfonamide], the melting point was in the range of 230 to 232 °C. Moreover, the inhibition at 10 µM at recombinant BCL-2 amounted to 4%. `O=C(Nc1ccc(Br)cc1)Nc1ccc2nc(NS(=O)(=O)c3ccc4ccccc4c3)sc2c1` [17f, N-(6-(3-(4-Bromophenyl)ureido)benzo[d]thiazol-2-yl)naphthalene-2-sulfonamide] displayed a melting point of at least 300 °C. On recombinant BCL-2, the IC50 came out at 2290 nM and the inhibition at 10 µM was above 60%. Regarding `O=C(Nc1nc2ccc(C(=O)N3CCN(c4ccc(Cl)c(Cl)c4)CC3)cc2s1)c1ccc(NCCc2ccccc2)c([N+](=O)[O-])c1` [12b, N-(6-(4-(3,4-Dichlorophenyl)piperazine-1-carbonyl)benzo[d]thiazol-2-yl)-3-nitro-4-(phenethylamino)benzamide], the melting point was 176 to 178 °C. Further, the inhibition at 10 µM at recombinant BCL-2 worked out at 18%.

`O=C(Nc1nc2ccc(C(=O)N3CCN(C(=O)C4CCCO4)CC3)cc2s1)c1ccc(NCCc2ccccc2)c([N+](=O)[O-])c1` (stereo not shown) [12e, 3-Nitro-4-(phenethylamino)-N-(6-(4-(tetrahydrofuran-2-carbonyl)piperazine-1-carbonyl)-benzo[d]thiazol-2-yl)benzamide]: the melting point lay within 134 to 136 °C. The inhibition at 10 µM on recombinant BCL-2 came to 8%. As for `O=C(Nc1ccc(OCc2ccc(Cl)cc2)cc1)c1ccc2nc(NS(=O)(=O)c3ccc4ccccc4c3)sc2c1` [8c, N-(4-((4-Chlorobenzyl)oxy)phenyl)-2-(naphthalene-2-sulfonamido)benzo[d]thiazole-6-carboxamide], the melting point was 296 to 298 °C. Also, the inhibition at 10 µM at recombinant BCL-2 is 48%.

`O=C(Nc1ccc(Oc2ccc(Cl)c(F)c2)cc1)c1ccc2nc(NS(=O)(=O)c3ccc4ccccc4c3)sc2c1` [9a, N-(4-(4-Chloro-3-fluorophenoxy)phenyl)-2-(naphthalene-2-sulfonamido)benzo[d]thiazole-6-carboxamide] gave a melting point of 294 to 296 °C. In addition, the inhibition at 10 µM on recombinant BCL-2 was 9%. For `CC1(C)CCC(CN2CCN(c3ccc(C(=O)NS(=O)(=O)c4ccc(NCC5CCOCC5)c([N+](=O)[O-])c4)c(Oc4cnc5[nH]ccc5c4)c3)CC2)=C(c2ccc(Cl)cc2)C1` [ABT-199 (20), reference compound], on recombinant BCL-2 (at 100 nM), the inhibition at 0.1 µM came out at 92%. As to “N-(6-(4-(4-Chlorophenyl)piperazine-1-carbonyl)benzo[d]thiazol-2-yl)naphthalene-2-sulfonamide [7d]”, at recombinant BCL-2, the BCL-2 inhibition % amounted to 8%.

`Cc1cccc(NC(=O)Nc2ccc3nc(NS(=O)(=O)c4ccc5ccccc5c4)sc3c2)c1` [17e, N-(6-(3-(m-Tolyl)ureido)benzo[d]thiazol-2-yl)naphthalene-2-sulfonamide] came in with a melting point of at least 300 °C. Further, the inhibition at 10 µM on recombinant BCL-2 was 0%.

`COc1cccc(NC(=O)Nc2ccc3nc(NS(=O)(=O)c4ccc5ccccc5c4)sc3c2)c1` [17d, N-(6-(3-(3-Methoxyphenyl)ureido)benzo[d]thiazol-2-yl)naphthalene-2-sulfonamide] returned a melting point of at least 300 °C. On recombinant BCL-2, the inhibition at 10 µM amounted to 7%. On to `O=C(c1ccc2nc(NS(=O)(=O)c3ccc4ccccc4c3)sc2c1)N1CCN(C(c2ccccc2)c2ccccc2)CC1` [7f, N-(6-(4-Benzhydrylpiperazine-1-carbonyl)benzo[d]thiazol-2-yl)naphthalene-2-sulfonamide], for which the melting point was 200 to 202 °C. In addition, on recombinant BCL-2, the inhibition at 10 µM came to 7%. The molecule `O=C(Nc1ccc(OCc2cccc(F)c2)cc1)c1ccc2nc(NS(=O)(=O)c3ccc4ccccc4c3)sc2c1` [8a, N-(4-((3-Fluorobenzyl)oxy)phenyl)-2-(naphthalene-2-sulfonamido)-benzo[d]thiazole-6-carboxamide] gave a melting point of 146 to 148 °C. In addition, at recombinant BCL-2, the inhibition at 10 µM is 41%. With `O=C(c1ccc2nc(NS(=O)(=O)c3ccc4ccccc4c3)sc2c1)N1CCN(Cc2ccc3c(c2)OCO3)CC1` [7h, N-(6-(4-(Benzo[d]dioxol-5-ylmethyl)piperazine-1-carbonyl)benzo[d]thiazol-2-yl)naphthalene-2-sulfonamide], the melting point was 178 to 180 °C. In addition, the inhibition at 10 µM on recombinant BCL-2 worked out at 1%. As to `COc1ccccc1N1CCN(C(=O)c2ccc3nc(NS(=O)(=O)c4ccc5ccccc5c4)sc3c2)CC1` [7c, N-(6-(4-(2-Methoxyphenyl)piperazine-1-carbonyl)benzo[d]thiazol-2-yl)naphthalene-2-sulfonamide], the melting point lay in the range of 258 to 260 °C. Also, the inhibition at 10 µM at recombinant BCL-2 was 2%.

In turn, `O=C(Nc1nc2ccc(C(=O)N3CCN(C/C=C/c4ccccc4)CC3)cc2s1)c1ccc(NCCc2ccccc2)c([N+](=O)[O-])c1` [12d, (E)-N-(6-(4-Cinnamylpiperazine-1-carbonyl)benzo[d]thiazol-2-yl)-3-nitro-4-(phenethyl-amino)benzamide] registered a melting point of 244 to 246 °C. The inhibition at 10 µM on recombinant BCL-2 stood at 14%.

On to `O=C(c1ccc2nc(NS(=O)(=O)c3ccc4ccccc4c3)sc2c1)N1CCN(C/C=C/c2ccccc2)CC1` [7g, (E)-N-(6-(4-Cinnamylpiperazine-1-carbonyl)benzo[d]thiazol-2-yl)naphthalene-2-sulfonamide], for which the melting point lay in the range of 240 to 242 °C. Besides, the inhibition at 10 µM on recombinant BCL-2 was found to be 7%. On the same counts, the results for `O=C(Nc1ccc(Cl)c(Cl)c1)Nc1ccc2nc(NS(=O)(=O)c3ccc4ccccc4c3)sc2c1` [17h, N-(6-(3-(3,4-Dichlorophenyl)ureido)benzo[d]thiazol-2-yl)naphthalene-2-sulfonamide] are 290 to 292 °C and 0%. Take `O=C(Nc1ccc(OCc2ccc(Br)cc2)cc1)c1ccc2nc(NS(=O)(=O)c3ccc4ccccc4c3)sc2c1` [8d, N-(4-((4-Bromobenzyl)oxy)phenyl)-2-(naphthalene-2-sulfonamido)benzo[d]thiazole-6-carboxamide]: the melting point is at least 300 °C. On recombinant BCL-2, the IC50 worked out at 1620 nM and the inhibition at 10 µM is above 60%.

In turn, `O=C(Nc1ccc(OCc2ccc(C(F)(F)F)cc2)cc1)c1ccc2nc(NS(=O)(=O)c3ccc4ccccc4c3)sc2c1` [8f, N-(4-((4-Trifluormethylbenzyl)oxy)phenyl)-2-(naphthalene-2-sulfonamido)benzo-[d]thiazole-6-carboxamide] showed a melting point of at least 300 °C. The inhibition at 10 µM at recombinant BCL-2 was found to be 14%. Regarding `O=C(Nc1ccccc1)Nc1ccc2nc(NS(=O)(=O)c3ccc4ccccc4c3)sc2c1` [17a, N-(6-(3-Phenylureido)benzo[d]thiazol-2-yl)naphthalene-2-sulfonamide], the melting point is at least 300 °C. In addition, the inhibition at 10 µM at recombinant BCL-2 came to 0%.

As to `O=C(Nc1cccc(Br)c1)Nc1ccc2nc(NS(=O)(=O)c3ccc4ccccc4c3)sc2c1` [17c, N-(6-(3-(3-Bromophenyl)ureido)benzo[d]thiazol-2-yl)naphthalene-2-sulfonamide], the melting point is at least 300 °C. Also, the inhibition at 10 µM on recombinant BCL-2 was 10%.

Molecule `Cc1ccc(NC(=O)Nc2ccc3nc(NS(=O)(=O)c4ccc5ccccc5c4)sc3c2)cc1Cl` [17j, N-(6-(3-(3-Chloro-4-methylphenyl)ureido)benzo[d]thiazol-2-yl)naphthalene-2-sulfonamide] had a melting point of at least 300 °C. In addition, at recombinant BCL-2, the inhibition at 10 µM was 9%. In the case of “N-(6-(4-(3,4-Dichlorophenyl)piperazine-1-carbonyl)benzo[d]thiazol-2-yl)naphthalene-2-sulfonamide [7e]”, the BCL-2 inhibition % on recombinant BCL-2 was determined as 0%. For `O=C(c1ccc2nc(NS(=O)(=O)c3ccc4ccccc4c3)sc2c1)N1CCN(c2ccccc2F)CC1` [7b, N-(6-(4-(2-Fluorophenyl)piperazine-1-carbonyl)benzo[d]thiazol-2-yl)naphthalene-2-sulfonamide], the melting point fell in the range of 290 to 292 °C. In addition, at recombinant BCL-2, the inhibition at 10 µM stood at 0%. Consider `O=C(Nc1cccc(Cl)c1)Nc1ccc2nc(NS(=O)(=O)c3ccc4ccccc4c3)sc2c1` [17b, N-(6-(3-(3-Chlorophenyl)ureido)benzo[d]thiazol-2-yl)naphthalene-2-sulfonamide], for which the melting point is at least 300 °C. Also, the inhibition at 10 µM at recombinant BCL-2 was found to be 7%. Turning to `COc1ccccc1N1CCN(C(=O)c2ccc3nc(NC(=O)c4ccc(NCCc5ccccc5)c([N+](=O)[O-])c4)sc3c2)CC1` [12a, N-(6-(4-(2-Methoxyphenyl)piperazine-1-carbonyl)benzo[d]thiazol-2-yl)-3-nitro-4-(phenethylamino)benzamide], the melting point lay in the range of 184 to 186 °C. At recombinant BCL-2, the inhibition at 10 µM was 15%.

Turning to `O=C(c1ccc2nc(NS(=O)(=O)c3ccc4ccccc4c3)sc2c1)N1CCN(c2ccccc2)CC1` [7a, N-(6-(4-Phenylpiperazine-1-carbonyl)benzo[d]thiazol-2-yl)naphthalene-2-sulfonamide], the inhibition at 10 µM at recombinant BCL-2 is 0%.

Usually inhibition stands for the relative decrease from the control value, in per cent. As a reminder, the melting point is the temperature of the solid-liquid transition. One may read the IC50 as the midpoint of a concentration-inhibition curve.
